Test results from BindingDB's records for doi:10.1016/j.bmc.2017.06.015 (China Pharmaceutical University, 2017).

Tests used:
[1] = Inhibition of ABCB1 in human K562/A02 cells assessed as potentiation of adriamycin-induced cytotoxicity by measuring ADR IC50 measured after 48 hrs by MTT assay (Rvb = 51.34 +/- 5.1 uM)
[2] = Inhibition of ABCB1 in human K562/A02 cells assessed as potentiation of adriamycin-induced cytotoxicity by measuring ADR IC50 at 5 uM measured after 48 hrs by MTT assay (Rvb = 43.75 to 96.91 uM)
[3] = Inhibition of ABCB1 in human K562/A02 cells assessed as potentiation of adriamycin-induced cytotoxicity by measuring ADR IC50 treated for 48 hrs followed by compound washout measured after 6 hrs by MTT assay (Rvb = 51.34 +/- 5.1 uM)
[4] = Inhibition of ABCB1 in human K562/A02 cells assessed as potentiation of adriamycin-induced cytotoxicity by measuring ADR IC50 treated for 48 hrs followed by compound washout measured immediately by MTT assay (Rvb = 51.34 +/- 5.1 uM)
[5] = Inhibition of ABCB1 in human K562/A02 cells assessed as potentiation of adriamycin-induced cytotoxicity by measuring ADR IC50 treated for 48 hrs followed by compound washout measured after 24 hrs by MTT assay (Rvb = 51.34 +/- 5.1 uM)
[6] = Inhibition of ABCB1 in human K562/A02 cells assessed as potentiation of adriamycin-induced cytotoxicity by measuring ADR IC50 treated for 48 hrs followed by compound washout measured after 12 hrs by MTT assay (Rvb = 51.34 +/- 5.1 uM)
[7] = target: ATP-dependent translocase ABCB1 (Homo sapiens, UniProt P08183); assay: Inhibition of ABCB1 in human K562/A02 cells assessed as potentiation of adriamycin-induced cytotoxicity by measuring ADR IC50 at 5 uM measured after 48 hrs by MTT assay (Rvb = 43.75 to 96.91 uM)
[8] = Inhibition of ABCB1 in human K562/A02 cells assessed as potentiation of adriamycin-induced cytotoxicity measured after 48 hrs by MTT assay
[9] = Inhibition of ABCB1 in human K562/A02 cells assessed as potentiation of adriamycin-induced cytotoxicity by measuring ADR IC50 at 1 uM measured after 48 hrs by MTT assay (Rvb = 43.75 uM)
[10] = Inhibition of ABCB1 in human K562/A02 cells assessed as potentiation of adriamycin-induced cytotoxicity by measuring ADR IC50 at 0.1 uM measured after 48 hrs by MTT assay (Rvb = 43.75 uM)
[11] = Inhibition of ABCB1 in human K562/A02 cells assessed as potentiation of adriamycin-induced cytotoxicity by measuring ADR IC50 at 0.5 uM measured after 48 hrs by MTT assay (Rvb = 43.75 uM)
[12] = Inhibition of ABCB1 in human K562/A02 cells assessed as potentiation of adriamycin-induced cytotoxicity by measuring ADR IC50 at 2.5 uM measured after 48 hrs by MTT assay (Rvb = 43.75 uM)
[13] = Inhibition of ABCB1 in human K562/A02 cells assessed as potentiation of adriamycin-induced cytotoxicity by measuring ADR IC50 at 0.25 uM measured after 48 hrs by MTT assay (Rvb = 43.75 uM)
[14] = Inhibition of ABCB1 in human K562/A02 cells assessed as potentiation of adriamycin-induced cytotoxicity by measuring ADR IC50 at 0.05 uM measured after 48 hrs by MTT assay (Rvb = 43.75 uM)
[15] = Inhibition of ABCB1 in human K562/A02 cells assessed as potentiation of adriamycin-induced cytotoxicity by measuring ADR IC50 at 0.025 uM measured after 48 hrs by MTT assay (Rvb = 43.75 uM)

Chain of ATP-dependent translocase ABCB1 (P08183 whole entry): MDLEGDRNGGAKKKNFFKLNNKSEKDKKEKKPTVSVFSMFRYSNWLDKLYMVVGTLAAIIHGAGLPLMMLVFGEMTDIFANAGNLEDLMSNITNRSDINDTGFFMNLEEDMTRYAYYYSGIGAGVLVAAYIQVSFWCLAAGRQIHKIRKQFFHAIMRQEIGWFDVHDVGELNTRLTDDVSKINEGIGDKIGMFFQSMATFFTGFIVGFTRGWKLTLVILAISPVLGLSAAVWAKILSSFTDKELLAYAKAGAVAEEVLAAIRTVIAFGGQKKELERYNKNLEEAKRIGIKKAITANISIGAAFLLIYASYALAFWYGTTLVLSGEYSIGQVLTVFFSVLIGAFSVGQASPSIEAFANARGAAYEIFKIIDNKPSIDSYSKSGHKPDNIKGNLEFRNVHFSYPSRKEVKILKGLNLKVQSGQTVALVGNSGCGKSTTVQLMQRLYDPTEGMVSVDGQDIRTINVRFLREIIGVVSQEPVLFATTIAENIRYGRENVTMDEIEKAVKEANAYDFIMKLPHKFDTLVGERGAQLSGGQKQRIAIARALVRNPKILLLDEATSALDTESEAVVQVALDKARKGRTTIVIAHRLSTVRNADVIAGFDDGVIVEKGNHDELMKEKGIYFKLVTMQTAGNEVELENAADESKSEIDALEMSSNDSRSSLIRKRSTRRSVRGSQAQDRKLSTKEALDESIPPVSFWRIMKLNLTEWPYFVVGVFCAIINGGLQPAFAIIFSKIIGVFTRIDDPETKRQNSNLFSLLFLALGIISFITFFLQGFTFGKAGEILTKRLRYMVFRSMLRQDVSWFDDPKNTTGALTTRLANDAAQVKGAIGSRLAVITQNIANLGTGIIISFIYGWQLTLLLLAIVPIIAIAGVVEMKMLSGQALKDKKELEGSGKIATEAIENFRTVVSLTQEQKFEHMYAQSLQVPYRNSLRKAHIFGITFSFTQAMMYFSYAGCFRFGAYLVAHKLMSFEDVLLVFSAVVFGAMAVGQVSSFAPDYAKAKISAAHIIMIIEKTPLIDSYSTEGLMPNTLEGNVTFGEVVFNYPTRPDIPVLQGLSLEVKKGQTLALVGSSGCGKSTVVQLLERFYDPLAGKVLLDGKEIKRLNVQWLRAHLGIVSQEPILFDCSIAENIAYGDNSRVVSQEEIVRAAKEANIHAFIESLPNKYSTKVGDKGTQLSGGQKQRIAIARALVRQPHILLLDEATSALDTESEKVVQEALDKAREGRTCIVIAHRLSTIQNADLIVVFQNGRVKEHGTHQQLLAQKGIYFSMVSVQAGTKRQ

## COc1cc2c(cc1OC)CN(CCc1ccc(NC(=O)c3cc(OC)c(OC)cc3NC(=O)c3cnc4ccccc4c3)cc1)CC2
[1]
  IC50: 1.6 µM
[2]
  IC50: 1.97 µM
[3]
  IC50: 4.97 µM
[4]
  IC50: 3.02 µM
[5]
  IC50: 14.4 µM
[6]
  IC50: 8.28 µM

## COc1cc2c(cc1OC)CN(CCn1cc(COc3ccccc3C(=O)Nc3ccc(C(C)(C)C)cc3)nn1)CC2
[7]
  IC50: 1.27 µM
[8]
  EC50: 0.256 µM
[9]
  IC50: 6.02 µM
[1]
  IC50: 1.26 µM
[10]
  IC50: 34.9 µM
[11]
  IC50: 12.5 µM
[12]
  IC50: 3.33 µM
[13]
  IC50: 18.4 µM
[14]
  IC50: 37.2 µM
[15]
  IC50: 37.2 µM
[3]
  IC50: 6.32 µM
[4]
  IC50: 4.33 µM
[5]
  IC50: 17.2 µM
[6]
  IC50: 10.3 µM

## COc1cc2c(cc1OC)CN(CCn1cc(COc3ccccc3C(=O)Nc3ccccc3)nn1)CC2
[2]
  IC50: 25.5 µM

## COc1cccc(NC(=O)c2ccccc2OCc2cn(CCN3CCc4cc(OC)c(OC)cc4C3)nn2)c1
[7]
  IC50: 8.73 µM

## COc1cc2c(cc1OC)CN(CCn1cc(COc3ccccc3C(=O)Nc3ccc(Cl)cc3)nn1)CC2
[2]
  IC50: 6.93 µM

## COc1ccc(NC(=O)c2ccccc2OCc2cn(CCN3CCc4cc(OC)c(OC)cc4C3)nn2)cc1OC
[2]
  IC50: 7.82 µM

## COc1ccc(NC(=O)c2ccccc2OCc2cn(CCN3CCc4cc(OC)c(OC)cc4C3)nn2)cc1
[2]
  IC50: 8.38 µM

## COc1cc2c(cc1OC)CN(CCn1cc(COc3ccccc3C(=O)Nc3ccc(C)cc3)nn1)CC2
[2]
  IC50: 7.65 µM

## COc1cc2c(cc1OC)CN(CCn1cc(COc3ccccc3C(=O)Nc3cccc(C)c3)nn1)CC2
[2]
  IC50: 12.2 µM

## COc1cc2c(cc1OC)CN(CCn1cc(COc3ccccc3NC(=O)c3ccc(C(C)(C)C)cc3)nn1)CC2
[2]
  IC50: 3.42 µM

## COc1cc2c(cc1OC)CN(CCn1cc(COc3ccccc3C(=O)Nc3ccccc3[N+](=O)[O-])nn1)CC2
[2]
  IC50: 26.9 µM

## COc1cc2c(cc1OC)CN(CCn1cc(COc3ccccc3C(=O)Nc3cccc([N+](=O)[O-])c3)nn1)CC2
[2]
  IC50: 27.7 µM

## COc1cc2c(cc1OC)CN(CCn1cc(COc3ccccc3C(=O)Nc3ccc([N+](=O)[O-])cc3)nn1)CC2
[2]
  IC50: 21.1 µM

## CCCCc1ccc(NC(=O)c2ccccc2OCc2cn(CCN3CCc4cc(OC)c(OC)cc4C3)nn2)cc1
[2]
  IC50: 6.25 µM

## COc1cc2c(cc1OC)CN(CCn1cc(COc3ccccc3C(=O)Nc3ccc(OC(F)(F)F)cc3)nn1)CC2
[2]
  IC50: 4.52 µM

## COc1cc2c(cc1OC)CN(CCn1cc(COc3ccccc3C(=O)Nc3ccc(F)cc3)nn1)CC2
[2]
  IC50: 8.29 µM

## COc1cc2c(cc1OC)CN(CCn1cc(COc3ccccc3C(=O)Nc3cc(OC)c(OC)c(OC)c3)nn1)CC2
[2]
  IC50: 31.9 µM

## COc1cc2c(cc1OC)CN(CCn1cc(COc3ccccc3C(=O)Nc3cccc(Cl)c3)nn1)CC2
[2]
  IC50: 22.8 µM
